Laboratory results: patent US20100173930A1, “Certain Chemical Entities, Compositions and Methods” (priority 2006, published 2010)

system: SKM MYOFIBRIL; assay: SKM myofibril AC1.4 (ATPase, PK/LDH coupled enzyme system); assay type: biochemical; conditions: screen at pCa=6.5; also: unit not given here

Row | Structure (SMILES) | SKM MYOFIBRIL AC1.4 (median)
1 | Oc1ccccc1-c1nc2ccccn2c1NCc1ccc(F)cc1 [2-(3-{[(4-fluorophenyl)methyl]amino}-4-hydroimidazo[1,2-a]pyridin-2-yl)phenol] | 3.2661
2 | CCCCNc1c(-c2ccc(O)cc2)nc2ccccn12 [4-[3-(butylamino)-4-hydroimidazo[1,2-a]pyridin-2-yl]phenol] | 27.9936
3 | Cc1ccn2c(NCc3ccc(Cl)cc3)c(-c3ccccc3O)nc2c1 [2-(3-{[(4-chlorophenyl)methyl]amino}-7-methyl-4-hydroimidazo[1,2-a]pyridin-2-yl)phenol] | 3.3207
4 | Oc1ccc(-c2nc3ccccn3c2NC2CCCC2)cc1 [4-[3-(cyclopentylamino)-4-hydroimidazo[1,2-a]pyridin-2-yl]phenol] | 19.8598
5 | COc1ccc(-c2nc3cc(C)ccn3c2NCc2cccc(Cl)c2)c(O)c1 [2-(3-{[(3-chlorophenyl)methyl]amino}-7-methyl(4-hydroimidazo[1,2-a]pyridin-2-yl))-5-methoxyphenol] | 27.0817
6 | CCc1ccc2nc(-c3ccc(O)cc3)c(NC3CCCCC3)n2c1 [4-[3-(cyclohexylamino)-6-ethyl-4-hydroimidazo[1,2-a]pyridin-2-yl]phenol] | 4.3136
7 | Cc1cn2c(NCc3cccc(Cl)c3)c(-c3ccccc3O)nc2c(C)n1 [2-(3-{[(3-chlorophenyl)methyl]amino}-6,8-dimethyl-4-hydroimidazo[1,2-a]pyrazin-2-yl)phenol] | 6.4593
8 | Oc1ccccc1-c1nc2ccc(Br)cn2c1NCc1ccc(F)cc1 [2-(6-bromo-3-{[(4-fluorophenyl)methyl]amino}-4-hydroimidazo[1,2-a]pyridin-2-yl)phenol] | 5.6018
9 | Oc1ccccc1-c1nc2cc(Br)ccn2c1NCc1cccc(Cl)c1 [2-(7-bromo-3-{[(3-chlorophenyl)methyl]amino}-4-hydroimidazo[1,2-a]pyridin-2-yl)phenol] | 8.3071
10 | Cc1ccn2c(NCc3ccc(F)cc3)c(-c3ccc(O)cc3)nc2c1 [4-(3-{[(4-fluorophenyl)methyl]amino}-7-methyl-4-hydroimidazo[1,2-a]pyridin-2-yl)phenol] | 44.5161
11 | COc1ccc(-c2nc3ccc(C)cn3c2NC2CCCCC2)cc1O [5-[3-(cyclohexylamino)-6-methyl(4-hydroimidazo[1,2-a]pyridin-2-yl)]-2-methoxyphenol] | 6.0251
12 | OCc1ccn2c(NCc3cccc(Cl)c3)c(-c3ccccc3O)nc2c1 [2-(3-{[(3-chlorophenyl)methyl]amino}-7-(hydroxymethyl)-4-hydroimidazo[1,2-a]pyridin-2-yl)phenol] | 1.9956
13 | N#Cc1ccc2nc(-c3ccccc3O)c(NCc3cccc(Cl)c3)n2c1 [3-{[(3-chlorophenyl)methyl]amino}-2-(2-hydroxyphenyl)-4-hydroimidazo[1,2-a]pyridine-6-carbonitrile] | 2.6805
14 | COC(=O)c1ccc2nc(-c3ccccc3O)c(NCc3cccc(Cl)c3)n2c1 [methyl 3-{[(3-chlorophenyl)methyl]amino}-2-(2-hydroxyphenyl)-4-hydroimidazo[1,2-a]pyridine-6-carboxylate] | 2.0174
15 | Cc1cccc2cc3c(nc12)OCC(=O)N(Cc1ccc(Cl)cc1)C3 [4-[(4-chlorophenyl)methyl]-10-methyl-2H,5H-1,4-oxazaperhydroepino[7,6-b]quinolin-3-one] | 18.1529
16 | Cc1ccc2cc(-c3nc4cc(C)ccn4c3NCc3ccc(F)cc3)c(O)nc2c1 [3-(3-{[(4-fluorophenyl)methyl]amino}-7-methyl(4-hydroimidazo[1,2-a]pyridin-2-yl))-7-methylquinolin-2-ol] | 38.7091
17 | Cc1ccn2c(NCc3cccc(Cl)c3)c(-c3ccccc3O)nc2c1 [2-(3-{[(3-chlorophenyl)methyl]amino}-7-methyl-4-hydroimidazo[1,2-a]pyridin-2-yl)phenol] | 0.9522
18 | Oc1ccccc1-c1nc2c(Br)cccn2c1NCc1cccc(Cl)c1 [2-(8-bromo-3-{[(3-chlorophenyl)methyl]amino}-4-hydroimidazo[1,2-a]pyridin-2-yl)phenol] | 13.2238
19 | O=C(O)c1ccc2nc(-c3ccccc3O)c(NCc3ccc(F)cc3)n2c1 [3-{[(4-fluorophenyl)methyl]amino}-2-(2-hydroxyphenyl)-4-hydroimidazo[1,2-a]pyridine-6-carboxylic acid] | 30.4725
20 | COc1ccccc1CNc1c(-c2ccccc2O)nc2cc(C)ccn12 [2-(3-{[(2-methoxyphenyl)methyl]amino}-7-methyl-4-hydroimidazo[1,2-a]pyridin-2-yl)phenol] | 1.9683
21 | Oc1ccc(-c2nc3ccccn3c2NC2CCCCC2)cc1 [4-[3-(cyclohexylamino)-4-hydroimidazo[1,2-a]pyridin-2-yl]phenol] | 8.513
22 | O=C(c1ccc2nc(-c3ccccc3O)c(NCc3cccc(Cl)c3)n2c1)N1CCOCC1 [3-{[(3-chlorophenyl)methyl]amino}-2-(2-hydroxyphenyl)(4-hydroimidazo[1,2-a]pyridin-6-yl) morpholin-4-yl ketone] | 24.9925
23 | COC(=O)c1ccc2nc(-c3ccccc3O)c(NCc3ccc(F)cc3)n2c1 [methyl 3-{[(4-fluorophenyl)methyl]amino}-2-(2-hydroxyphenyl)-4-hydroimidazo[1,2-a]pyridine-6-carboxylate] | 4.201
24 | Oc1ccc(-c2nc3ccc(F)cn3c2NC2CCCC2)cc1 [4-[3-(cyclopentylamino)-6-fluoro-4-hydroimidazo[1,2-a]pyridin-2-yl]phenol] | 26.6981
25 | CCc1ccn2c(NCc3cccc(Cl)c3)c(-c3ccccc3O)nc2c1 [2-(3-{[(3-chlorophenyl)methyl]amino}-7-ethyl-4-hydroimidazo[1,2-a]pyridin-2-yl)phenol] | 0.9168
26 | C[C@H](Nc1c(-c2ccc(O)cc2)nc2ccccn12)c1ccccc1 [4-{3-[((1S)-1-phenylethyl)amino]-4-hydroimidazo[1,2-a]pyridin-2-yl}phenol] | 23.0212
27 | CCc1ccn2c(NC3CCCC3)c(-c3ccc(O)cc3)nc2c1 [4-[3-(cyclopentylamino)-7-ethyl-4-hydroimidazo[1,2-a]pyridin-2-yl]phenol] | 7.5674
28 | C[C@@H](Nc1c(-c2ccc(O)cc2)nc2ccccn12)C(C)(C)C [4-{3-[((1R)-1,2,2-trimethylpropyl)amino]-4-hydroimidazo[1,2-a]pyridin-2-yl}phenol] | 15.0489
29 | Oc1ccccc1-c1nc2ccc(Cl)cn2c1NCc1ccc(F)cc1 [2-(6-chloro-3-{[(4-fluorophenyl)methyl]amino}-4-hydroimidazo[1,2-a]pyridin-2-yl)phenol] | 3.5116
30 | O=C(NCCO)c1ccc2nc(-c3ccccc3O)c(NCc3cccc(Cl)c3)n2c1 [(3-{[(3-chlorophenyl)methyl]amino}-2-(2-hydroxyphenyl)(4-hydroimidazo[1,2-a]pyridin-6-yl))-N-(2-hydroxyethyl)carboxamide] | 1.3334
